Common to all, as to assay type: cell-based
The subject of series [1] is p53 responsive β-lactamase reporter in HCT116 cells. As to the kind of experiment: cells. The following applies: 0% FBS 4Hr; read-out: p53 reporter assay EC50. The essentials: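 Read-out used the ToxBLAzer Dual Screen for β-lactamase driven by a stably integrated p53-responsive reporter. Assay: 8000 HCT116 cells per well at 0.5% final DMSO. Reported numbers are geometric means over a minimum of three biological replicates.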
A general note: Reporter assays use an easily measured gene product as a stand-in for the process of interest.

Series [2] is described as follows: Lactate dehydrogenase (LDH) release assay. The following applies: LDH: Cytotoxicity assay EC50. In short, it runs like this:
(§1)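 Membrane damage measured as lactate dehydrogenase release (CytoTox-ONE kit) from p53-responsive β-lactamase reporter HCT116 cells plated at 8000 per well. Final DMSO 0.5%; geometric mean reported from a minimum of three biological replicates.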

Series [3] deals with HCT116 cells. The experiment in a line: Lactate dehydrogenase (LDH) release assay. The essentials: as §1
Series [4] concerns Jump-In T-REx CHO-K1 BLA cells. The experiment in a line: cells. The following applies: 0% FBS 4Hr; for EC50: read-out: TETCHO: Counterscreen EC50. The method, then:
This assay was based on Jump-In™ T-REx™ CHO-K1 BLA cells containing a stably integrated β-lactamase under the control of an inducible cytomegalovirus (CMV) promoter. Cells were maintained in Dulbecco’s […] Eagle Medium (DMEM) with 10% fetal bovine serum (FBS), Blasticidin, and Penicillin/Streptomycin and then transferred to 1.5 ml freezing vials and stored under liquid nitrogen in growth media containing 5% DMSO. […] Cells were seeded into a 384-well plate at a density of 4000 cells per well. Peptides were then dispensed to each well using a liquid handler, ECHO 555 and incubated for 16 h. The final working concentration of DMSO was 0.5%. β-lactamase activity was detected using the ToxBLAzer Dual Screen (Invitrogen), as per the manufacturer’s instructions. Measurements were carried out using the Envision multiplate reader (Perkin–Elmer). Counterscreen activity was defined as the amount of β-lactamase activity induced by tetracycline. Measurements were taken a minimum of three times (biological replicates) and values are reported as geometric means of the replicates.
Background: A counterscreen serves to expose hits that act by an unwanted route or on another target.

Positions of bridges follow the written chain, without caps; N, C: chain ends. Non-standard residues stand in square brackets, D forms with d. Residues, ends and D or L forms follow the SMILES beside them. tBuAla = CC(C)(C)C[C@H](N)C(=O)O; R8 = C=CCCCCCC[C@@](C)(N)C(=O)O; R5 = C=CCCC[C@@](C)(N)C(=O)O; S5 = C=CCCC[C@](C)(N)C(=O)O; Aib = CC(C)(N)C(=O)O; Ahx = NCCCCCC(=O)O A value given as a limit tells only on which side of the number the result lay.

For orientation: EC50 means the concentration giving half of the maximal effect. Regarding `CC(=O)N[C@H](C(=O)N[C@@H](CO)C(=O)N[C@@H](Cc1ccccc1)C(=O)N[C@]1(C)CCCCCCC=CCCC[C@@](C)(C(=O)N[C@@H](CCC(=O)O)C(=O)N[C@@H](CC(N)=O)C(=O)N[C@@H](Cc2ccccc2)C(N)=O)NC(=O)[C@H](CC(C)C)NC(=O)[C@H](CC(C)C)NC(=O)[C@H](C)NC(=O)[C@H](Cc2c[nH]c3ccccc23)NC(=O)[C@H](Cc2ccc(O)cc2)NC(=O)[C@H](CCC(=O)O)NC1=O)[C@@H](C)O` [MP-1169], the EC50 in series [1] is 5.34 µM; in series [2] it was 34.1 µM; in series [4], more than 50 µM. Moreover, the “LDH: Cytotoxicity assay % Effect” value in series [3] worked out at 37.3%. Moreover, the “TETCHO: Counterscreen % Effect” value in series [4] was 11.25%.

Consider `CC(=O)N[C@H](C(=O)N[C@@H](CO)C(=O)N[C@@H](Cc1ccccc1)C(=O)N[C@]1(C)CCCC=CCCC[C@](C)(C(=O)N[C@@H](CC(C)C)C(=O)N[C@@H](CC(C)C)C(=O)N2CCC[C@H]2C(=O)N[C@@H](CCC(N)=O)C(=O)N[C@@H](CC(N)=O)C(=O)N[C@@H](Cc2ccccc2)C(N)=O)NC(=O)[C@H](Cc2c[nH]c3ccccc23)NC(=O)[C@H](Cc2ccc(O)cc2)NC(=O)[C@H](CCC(=O)O)NC1=O)[C@@H](C)O` [MP-1173] (Ac-TSF[R5]EYW[R5]LLPQNF-NH2; staple 4-8), for which the EC50 in series [1] is 12.5 µM; in series [2] it was more than 50 µM; in series [4], 28.3 µM. Also, the “LDH: Cytotoxicity assay % Effect” value in series [3] worked out at 16.65%. Besides, the “TETCHO: Counterscreen % Effect” value in series [4] was 47.5%.

As to `CC(=O)N[C@H](C(=O)N[C@@H](CO)C(=O)N[C@@H](Cc1ccccc1)C(=O)NC(C)(C)C(=O)N[C@@H](CCC(=O)O)C(=O)N[C@@H](Cc1ccc(O)cc1)C(=O)N[C@@H](Cc1c[nH]c2ccccc12)C(=O)N[C@@H](C)C(=O)N[C@@H](CC(C)C)C(=O)N[C@@H](CC(C)(C)C)C(=O)NC(C)(C)C(N)=O)[C@@H](C)O` [MP-155] (Ac-TSF[Aib]EYWAL[tBuAla][Aib]-NH2), the EC50 in series [1] was 12.4 µM; in series [2], more than 50 µM; in series [4] it was more than 50 µM. In addition, the “LDH: Cytotoxicity assay % Effect” value in series [3] is given as -0.2131%. The “TETCHO: Counterscreen % Effect” value in series [4] is given as -0.6205%.

Consider `CC(=O)N[C@@H](CCCCN)C(=O)N[C@@H](CCCCN)C(=O)N[C@H](C(=O)N[C@@H](CO)C(=O)N[C@@H](Cc1ccccc1)C(=O)N[C@]1(C)CCCCCCC=CCCC[C@@](C)(C(N)=O)NC(=O)[C@H](CC(C)(C)C)NC(=O)[C@H](CC(C)C)NC(=O)[C@H](C)NC(=O)[C@H](Cc2c[nH]c3ccccc23)NC(=O)[C@H](Cc2ccc(O)cc2)NC(=O)[C@H](CCC(=O)O)NC1=O)[C@@H](C)O` [MP-152] (Ac-KKTSF[R8]EYWAL[tBuAla][S5]-NH2; staple 6-13), for which the EC50 in series [1] worked out at 19.3 µM; in series [2] it was 17.2 µM; in series [4], 36.5 µM. The “LDH: Cytotoxicity assay % Effect” value in series [3] is recorded as 49.97%. Moreover, the “TETCHO: Counterscreen % Effect” value in series [4] was determined as 34.57%.

Take `CC(=O)N[C@H](C(=O)N[C@@H](CO)C(=O)N[C@@H](Cc1ccccc1)C(=O)N[C@]1(C)CCCCCCC=CCCC[C@@](C)(C(=O)NCCCCCC(=O)N[C@@H](CCCCN)C(N)=O)NC(=O)[C@H](CC(C)C)NC(=O)[C@H](CC(C)C)NC(=O)[C@H](C)NC(=O)[C@H](Cc2c[nH]c3ccccc23)NC(=O)[C@H](Cc2ccc(O)cc2)NC(=O)[C@H](CCC(=O)O)NC1=O)[C@@H](C)O` [MP-164]: the EC50 is 7.83 µM in series [1], more than 50 µM in series [2] and more than 50 µM in series [4]. For the same molecule, the “LDH: Cytotoxicity assay % Effect” value in series [3] turned out to be 4.255%. For the same molecule, the “TETCHO: Counterscreen % Effect” value in series [4] is listed as 0.7814%.

For `CC(=O)N[C@@H](CCCCN)C(=O)N[C@@H](CCCCN)C(=O)NCCCCCC(=O)N[C@H](C(=O)N[C@@H](CO)C(=O)N[C@@H](Cc1ccccc1)C(=O)N[C@]1(C)CCCCCCC=CCCC[C@@](C)(C(=O)N[C@@H](CCC(=O)O)C(=O)N[C@@H](CC(N)=O)C(=O)N[C@@H](Cc2ccc(O)cc2)C(N)=O)NC(=O)[C@H](CC(C)C)NC(=O)[C@H](CC(C)C)NC(=O)[C@H](C)NC(=O)[C@H](Cc2c[nH]c3ccccc23)NC(=O)[C@H](Cc2ccc(O)cc2)NC(=O)[C@H](CCC(=O)O)NC1=O)[C@@H](C)O` [MP-013] (Ac-KK[Ahx]TSF[R8]EYWALL[S5]ENY-NH2; staple 7-14), the EC50 is 8.65 µM in series [1], more than 50 µM in series [2] and more than 50 µM in series [4]. In addition, in series [3], the “LDH: Cytotoxicity assay % Effect” value is given as -1.001%. Moreover, in series [4], the “TETCHO: Counterscreen % Effect” value worked out at 11.6%.

In the case of `CC(=O)N[C@@H](Cc1c[nH]cn1)C(=O)N[C@@H](Cc1c[nH]cn1)C(=O)N[C@@H](Cc1c[nH]cn1)C(=O)NCCCCCC(=O)N[C@H](C(=O)N[C@@H](CO)C(=O)N[C@@H](Cc1ccccc1)C(=O)N[C@]1(C)CCCCCCC=CCCC[C@@](C)(C(N)=O)NC(=O)[C@H](CC(C)C)NC(=O)[C@H](CC(C)C)NC(=O)[C@H](C)NC(=O)[C@H](Cc2c[nH]c3ccccc23)NC(=O)[C@H](Cc2ccc(O)cc2)NC(=O)[C@H](CCC(=O)O)NC1=O)[C@@H](C)O` [MP-008], the EC50 was 17.9 µM in series [1], 28.5 µM in series [2] and more than 50 µM in series [4]. For the same molecule, in series [3], the “LDH: Cytotoxicity assay % Effect” value is 42.18%. Besides, the “TETCHO: Counterscreen % Effect” value in series [4] turned out to be 75.71%.

For `CC(=O)N[C@@H](CCCCN)C(=O)N[C@@H](CCCCN)C(=O)N[C@H](C(=O)N[C@@H](CO)C(=O)N[C@@H](Cc1ccccc1)C(=O)N[C@]1(C)CCCCCCC=CCCC[C@@](C)(C(=O)N[C@@H](CCC(=O)O)C(N)=O)NC(=O)[C@H](CC(C)(C)C)NC(=O)[C@H](CC(C)C)NC(=O)[C@H](C)NC(=O)[C@H](Cc2c[nH]c3ccccc23)NC(=O)[C@H](Cc2ccc(O)cc2)NC(=O)[C@H](CCC(=O)O)NC1=O)[C@@H](C)O` [MP-1159] (Ac-KKTSF[R8]EYWAL[tBuAla][S5]E-NH2; staple 6-13), the EC50 in series [1] was 5.08 µM; in series [2], more than 50 µM; in series [4], 49.2 µM. Further, the “LDH: Cytotoxicity assay % Effect” value in series [3] is given as -1.606%. Besides, the “TETCHO: Counterscreen % Effect” value in series [4] worked out at 44.44%.

As to `CC(=O)N[C@H](C(=O)N[C@@H](CO)C(=O)N[C@@H](Cc1ccccc1)C(=O)N[C@]1(C)CCCCCCC=CCCC[C@@](C)(C(N)=O)NC(=O)[C@H](CC(C)(C)C)NC(=O)[C@H](CC(C)C)NC(=O)[C@H](C)NC(=O)[C@H](Cc2c[nH]c3ccccc23)NC(=O)[C@H](Cc2ccc(O)cc2)NC(=O)[C@H](CCC(=O)O)NC1=O)[C@@H](C)O` [MP-149] (Ac-TSF[R8]EYWAL[tBuAla][S5]-NH2; staple 4-11), the concentration giving a half-maximal response (EC50) was 12.6 µM in series [1], 28.3 µM in series [2] and more than 50 µM in series [4]. The “LDH: Cytotoxicity assay % Effect” value in series [3] was 42.59%. Besides, the “TETCHO: Counterscreen % Effect” value in series [4] is 20.68%.

Take `CC(=O)N[C@H](C(=O)N[C@@H](CO)C(=O)N[C@@H](Cc1ccccc1)C(=O)N[C@]1(C)CCCCCCC=CCCC[C@@](C)(C(=O)N[C@@H](CCC(=O)O)C(=O)N[C@@H](CC(N)=O)C(=O)N[C@@H](Cc2ccc(O)cc2)C(N)=O)NC(=O)[C@H](CC(C)C)NC(=O)[C@H](CC(C)C)NC(=O)[C@H](C)NC(=O)[C@H](Cc2c[nH]c3ccccc23)NC(=O)[C@H](Cc2ccc(O)cc2)NC(=O)[C@H](CCC(=O)O)NC1=O)[C@@H](C)O` [MP-1170]: the values for the EC50 in series [1], in series [2] and in series [4] were 16.7 µM, more than 50 µM and 36.8 µM, respectively. Besides, the “LDH: Cytotoxicity assay % Effect” value in series [3] was found to be 6.762%. For the same molecule, the “TETCHO: Counterscreen % Effect” value in series [4] came out at 61.75%.

As to `CC(=O)N[C@H](C(=O)N[C@@H](CO)C(=O)N[C@@H](Cc1ccccc1)C(=O)NC(C)(C)C(=O)N[C@@H](CCC(=O)O)C(=O)N[C@@H](Cc1ccc(O)cc1)C(=O)N[C@@H](Cc1c[nH]c2ccccc12)C(=O)N[C@@H](C)C(=O)N[C@@H](CC(C)C)C(=O)N[C@@H](CC(C)C)C(=O)NC(C)(C)C(=O)N[C@@H](CCC(=O)O)C(N)=O)[C@@H](C)O` [MP-1176], the EC50 in series [1], in series [2] and in series [4] was more than 50 µM throughout. Also, the “LDH: Cytotoxicity assay % Effect” value in series [3] came out at 12.95%. Further, the “TETCHO: Counterscreen % Effect” value in series [4] is -0.7808%.

With `CC(=O)N[C@H](C(=O)N[C@@H](CO)C(=O)N[C@@H](Cc1ccccc1)C(=O)N[C@]1(C)CCCC=CCCC[C@](C)(C(=O)N[C@@H](CC(C)C)C(=O)N[C@@H](CC(C)C)C(=O)N[C@@H](CO)C(=O)N[C@@H](CCC(=O)O)C(=O)N[C@@H](CC(N)=O)C(=O)N[C@@H](Cc2ccccc2)C(N)=O)NC(=O)[C@H](Cc2c[nH]c3ccccc23)NC(=O)[C@H](Cc2ccc(O)cc2)NC(=O)[C@H](CCC(=O)O)NC1=O)[C@@H](C)O` [MP-167] (Ac-TSF[R5]EYW[R5]LLSENF-NH2; staple 4-8), the figures for the EC50 in series [1], in series [2] and in series [4] were 8.78 µM, 26 µM and 12.1 µM, respectively. Further, in series [3], the “LDH: Cytotoxicity assay % Effect” value turned out to be 34.73%. Besides, in series [4], the “TETCHO: Counterscreen % Effect” value was 22.82%.

For the origin of these results see paper PMC10786919, “Design-rules for stapled peptides with in vivo activity and their application to Mdm2/X antagonists” (Nature Communications, 2024).
